Measured values published in the NIST ThermoML archive (doi:10.1016/j.jct.2019.05.021).

Experiment: xn = mol fraction of the nth substance listed
Details: 100 kPa, Liquid; for viscosity: Falling or rolling sphere viscometry; for mass density: Vibrating tube method

CCCCCCCCCCCCCC(=O)OC [methyl tetradecanoate] + CC1CCCCC1
Details | mass density [kg/m3] | viscosity [mPa·s]
293.15 K, x2 = 0 | 867.17 | 4.557
293.15 K, x2 = 0.1 | 862.3 | 4.065
293.15 K, x2 = 0.2 | 856.82 | 3.591
293.15 K, x2 = 0.3 | 850.69 | 3.141
293.15 K, x2 = 0.4003 | 843.72 | 2.706
293.15 K, x2 = 0.5001 | 835.76 | 2.304
293.15 K, x2 = 0.6 | 826.55 | 1.925
293.15 K, x2 = 0.6999 | 815.89 | 1.578
293.15 K, x2 = 0.8 | 803.17 | 1.267
293.15 K, x2 = 0.8999 | 787.98 | 0.982
298.15 K, x2 = 0 | 863.35 | 3.979
298.15 K, x2 = 0.1 | 858.46 | 3.575
298.15 K, x2 = 0.2 | 853 | 3.176
298.15 K, x2 = 0.3 | 846.86 | 2.792
298.15 K, x2 = 0.4003 | 839.87 | 2.424
298.15 K, x2 = 0.5001 | 831.9 | 2.072
298.15 K, x2 = 0.6 | 822.64 | 1.743
298.15 K, x2 = 0.6999 | 811.92 | 1.438
298.15 K, x2 = 0.8 | 799.13 | 1.163
298.15 K, x2 = 0.8999 | 783.83 | 0.91
303.15 K, x2 = 0 | 859.54 | 3.519
303.15 K, x2 = 0.1 | 854.64 | 3.179
303.15 K, x2 = 0.2 | 849.17 | 2.838
303.15 K, x2 = 0.3 | 843.02 | 2.507
303.15 K, x2 = 0.4003 | 836.01 | 2.19
303.15 K, x2 = 0.5001 | 828.01 | 1.884
303.15 K, x2 = 0.6 | 818.71 | 1.6
303.15 K, x2 = 0.6999 | 807.93 | 1.327
303.15 K, x2 = 0.8 | 795.07 | 1.078
303.15 K, x2 = 0.8999 | 779.65 | 0.848
308.15 K, x2 = 0 | 855.74 | 3.093
308.15 K, x2 = 0.1 | 850.83 | 2.803
308.15 K, x2 = 0.2 | 845.36 | 2.515
308.15 K, x2 = 0.3 | 839.19 | 2.234
308.15 K, x2 = 0.4003 | 832.16 | 1.962
308.15 K, x2 = 0.5001 | 824.11 | 1.695
308.15 K, x2 = 0.6 | 814.78 | 1.445
308.15 K, x2 = 0.6999 | 803.92 | 1.205
308.15 K, x2 = 0.8 | 791 | 0.987
308.15 K, x2 = 0.8999 | 775.46 | 0.782
313.15 K, x2 = 0 | 851.94 | 2.797
313.15 K, x2 = 0.1 | 847.02 | 2.552
313.15 K, x2 = 0.2 | 841.53 | 2.302
313.15 K, x2 = 0.3 | 835.34 | 2.054
313.15 K, x2 = 0.4003 | 828.29 | 1.803
313.15 K, x2 = 0.5001 | 820.21 | 1.564
313.15 K, x2 = 0.6 | 810.83 | 1.336
313.15 K, x2 = 0.6999 | 799.9 | 1.121
313.15 K, x2 = 0.8 | 786.91 | 0.918
313.15 K, x2 = 0.8999 | 771.26 | 0.735
318.15 K, x2 = 0 | 848.14 | 2.544
318.15 K, x2 = 0.1 | 843.22 | 2.325
318.15 K, x2 = 0.2 | 837.71 | 2.101
318.15 K, x2 = 0.3 | 831.5 | 1.879
318.15 K, x2 = 0.4003 | 824.42 | 1.661
318.15 K, x2 = 0.5001 | 816.31 | 1.45
318.15 K, x2 = 0.6 | 806.88 | 1.249
318.15 K, x2 = 0.6999 | 795.9 | 1.052
318.15 K, x2 = 0.8 | 782.82 | 0.868
318.15 K, x2 = 0.8999 | 767.04 | 0.695
323.15 K, x2 = 0 | 844.34 | 2.308
323.15 K, x2 = 0.1 | 839.41 | 2.115
323.15 K, x2 = 0.2 | 833.87 | 1.92
323.15 K, x2 = 0.3 | 827.63 | 1.728
323.15 K, x2 = 0.4003 | 820.53 | 1.534
323.15 K, x2 = 0.5001 | 812.38 | 1.345
323.15 K, x2 = 0.6 | 802.92 | 1.161
323.15 K, x2 = 0.6999 | 791.88 | 0.985
323.15 K, x2 = 0.8 | 778.71 | 0.819
323.15 K, x2 = 0.8999 | 762.81 | 0.658
